Results on 37 compounds are retold here after patent US9499553B2 (CHUGAI SEIYAKU KABUSHIKI KAISHA, priority 2013, dated 2016).

pIC50: −log10 of the molar value.

For one test, the target named is T1, human NaPi-IIb (Homo sapiens, UniProt O95436).
T1 construct: expressed in transfected cells
T1 sequence (O95436 1-690): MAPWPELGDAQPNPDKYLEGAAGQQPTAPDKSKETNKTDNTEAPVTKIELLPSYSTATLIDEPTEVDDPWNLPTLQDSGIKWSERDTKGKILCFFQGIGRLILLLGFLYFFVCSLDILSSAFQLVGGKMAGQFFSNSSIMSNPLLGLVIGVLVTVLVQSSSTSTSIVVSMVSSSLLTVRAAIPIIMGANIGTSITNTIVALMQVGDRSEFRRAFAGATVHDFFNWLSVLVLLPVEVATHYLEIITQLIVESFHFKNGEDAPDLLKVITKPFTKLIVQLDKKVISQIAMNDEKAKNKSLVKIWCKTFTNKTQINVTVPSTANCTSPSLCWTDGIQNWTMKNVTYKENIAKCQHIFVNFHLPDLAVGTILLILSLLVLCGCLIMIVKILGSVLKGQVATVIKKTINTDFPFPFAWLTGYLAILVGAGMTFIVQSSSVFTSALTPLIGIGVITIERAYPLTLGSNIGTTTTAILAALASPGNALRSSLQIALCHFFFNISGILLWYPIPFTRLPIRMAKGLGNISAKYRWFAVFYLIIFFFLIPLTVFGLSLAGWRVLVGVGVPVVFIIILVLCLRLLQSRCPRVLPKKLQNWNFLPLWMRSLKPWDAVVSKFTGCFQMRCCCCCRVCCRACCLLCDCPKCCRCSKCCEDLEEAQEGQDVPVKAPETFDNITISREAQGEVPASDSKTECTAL
In words: Inhibitory effect on 33PO4 uptake into human NaPi-IIb-expressing CHO cells. It counts as cell-based. As to conditions: read-out: IC50. The protocol: Test Example 2: Inhibitory Effect on PO4 Uptake into Human NaPi-IIb-Expressing Cell CHO cells were transfected with human NaPi-IIb expression plasmids, and a stably human NaPi-IIb-expressing cell line was obtained using G418. The human NaPi-IIb-expressing cells were inoculated to a 96-well plate and incubated overnight in a CO2 incubator. […] After a given time, a 1/20 volume of buffer A containing ^33PO4 was added thereto and reacted at room temperature. After washing with ice-cold buffer A, a liquid scintillator was added to each reaction mixture, and the amount of ^33PO4 uptake was measured using TopCount.
As usually defined, the pIC50 is the IC50 on a negative log10 scale, so that one unit is a factor of ten. For the compound `CC(C)(C)[C@H]1C(O)=C(C(=O)Nc2ccc(Cl)cc2-c2ccc(C(F)(F)F)nc2)C(=O)N(Cc2cccc(F)c2F)N1CC(F)(F)F` [Example 247], the pIC50 was 5.09. Consider `Cc1c(Cl)ncnc1-c1cc(C(F)(F)F)ccc1NC(=O)C1=C(O)[C@@]2(C)CCCN2N(Cc2cccc(F)c2F)C1=O` [Example 69], for which the pIC50 is 5.05. Turning to `CC(C)[C@@H]1C(O)=C(C(=O)Nc2ccc(Cl)cc2-c2ccc(C(F)(F)F)nc2)C(=O)N(Cc2cccc(F)c2F)N1C` [Example 251], the pIC50 was 5.12.

For `CN1N(Cc2ccc(OCCN3CCOCC3)c(F)c2F)C(=O)C(C(=O)Nc2ccc(C(F)(F)F)cc2-c2ncnc(C(F)(F)F)c2Cl)=C(O)C12CCC2` [Example 284], the pIC50 was 5.11. On the same count and under the same terms, in the case of `C[C@]12CCCN1N(Cc1ccccc1F)C(=O)C(C(=O)Nc1ccc(C(F)(F)F)cc1-c1cc(C(F)(F)F)ncn1)=C2O` [Example 207] it was 5.19; in that of `Cc1nc(NC(=O)C2=C(O)C3(CCC3)N(C)N(Cc3cccc(F)c3F)C2=O)ccc1Br` [Example 259], 5.00; in that of `COc1cccc(CN2C(=O)C(C(=O)Nc3ccc(C(F)(F)F)cc3-c3ccc(C(F)(F)F)nc3)=C(O)[C@@]3(C)CCCN23)c1OC` [Example 175], 5.47.

In the case of `C[C@]12CCCN1N(Cc1ccccc1Br)C(=O)C(C(=O)Nc1cc(F)c(Br)c(F)c1)=C2O` [Example 216], the pIC50 was 5.10. The same measure, in the same setting: in the case of `CSc1cc(-c2cc(C(F)(F)F)ccc2NC(=O)C2=C(O)[C@@]3(C)CCCN3N(Cc3cccc(F)c3F)C2=O)cnc1C#N` [Example 113, (4aR)—N-[2-(6-Cyano-5-methylsulfanylpyridin-3-yl)-4-(trifluoromethyl)phenyl]-1-[(2,3-difluorophenyl)methyl]-4-hydroxy-4a-methyl-2-oxo-6,7-dihydro-5H-pyrrolo[1,2-b]pyridazine-3-carboxamide] it was 4.81; in that of `C[C@]12CCCN1N(Cc1cccc(F)c1F)C(=O)C(C(=O)Nc1ccc(C(F)(F)F)cc1-c1cnc(Cl)c(C#N)c1)=C2O` [Example 68, (4aR)—N-[2-(6-Chloro-5-cyanopyridin-3-yl)-4-(trifluoromethyl)phenyl]-1-[(2,3-difluorophenyl)methyl]-4-hydroxy-4a-methyl-2-oxo-6,7-dihydro-5H-pyrrolo[1,2-b]pyridazine-3-carboxamide], 5.59; in that of `CN1[C@@H](C(C)(C)C)C(O)=C(C(=O)Nc2ccc(Cl)cc2-c2ccc(C(F)(F)F)nc2)C(=O)N1Cc1cccc(F)c1F` [Example 239], 5.07. As for `CN1[C@@H](C(C)(C)C)C(O)=C(C(=O)Nc2ccc(Br)c(C(F)(F)F)c2)C(=O)N1Cc1cccc(F)c1F` [Example 243], the pIC50 is 5.13. Regarding `C[C@]12CCCN1N(Cc1cc(Cl)ccc1F)C(=O)C(C(=O)Nc1ccc(C(F)(F)F)cc1-c1cc(C(F)(F)F)ncn1)=C2O` [Example 211], the pIC50 is 5.24. For the compound `C[C@]12CCCN1N(Cc1c(F)cccc1Cl)C(=O)C(C(=O)Nc1ccc(C(F)(F)F)cc1-c1ccc(C(F)(F)F)nc1)=C2O` [Example 204], the negative-log IC50 (pIC50) is 6.00.

For `COc1cc(-c2cc(C(F)(F)F)ccc2NC(=O)C2=C(O)C(C)(C)N(C)N(Cc3cccc(F)c3F)C2=O)cnc1C#N` [Example 302], the pIC50 was 5.11. For the compound `C[C@]12CCCN1N(Cc1cccc(F)c1)C(=O)C(C(=O)Nc1ccc(C(F)(F)F)cc1-c1ccc(C(F)(F)F)nc1)=C2O` [Example 206], the pIC50 is 5.70. Take `C[C@]12CCCN1N(Cc1cccc(F)c1Cl)C(=O)C(C(=O)Nc1cc(F)c(Br)c(F)c1)=C2O` [Example 174]: the pIC50 is 5.66. On to `C[C@]12CCCN1N(Cc1c(F)cc(OCCCCCOC[C@@H](O)CO)cc1F)C(=O)C(C(=O)Nc1ccc(C(F)(F)F)cc1-c1ccc(C(F)(F)F)nc1)=C2O` [Example 153], for which the pIC50 is 5.21.

Turning to `C[C@]12CCCN1N(Cc1ccc(C#CCOCCCCO)c(F)c1F)C(=O)C(C(=O)Nc1ccc(C(F)(F)F)cc1-c1ccc(C(F)(F)F)nc1)=C2O` [Example 128], the pIC50 is 4.92.

`Cc1c(-c2cc(C(F)(F)F)ccc2NC(=O)C2=C(O)[C@H](C(C)(C)C)N(C)N(Cc3ccc(OCCN4CCOCC4)c(F)c3F)C2=O)ncnc1C(F)(F)F` [Example 278]: the pIC50 was 5.18. Turning to `C[C@]12CCCN1N(Cc1ccc(C#CCN3CCCC3=O)c(F)c1F)C(=O)C(C(=O)Nc1ccc(Br)c(F)c1)=C2O` [Example 131], the pIC50 is 4.82. On the same count and under the same terms, in the case of `CC(C)[C@H]1C(O)=C(C(=O)Nc2ccc(C(F)(F)F)cc2-c2ccc(C(F)(F)F)nc2)C(=O)N(Cc2ccc(OCCN3CCOCC3)c(F)c2F)N1C` [Example 280] it was 4.92. The same measure, in the same setting: in the case of `COc1ccc(OC)c(CN2C(=O)C(C(=O)Nc3ccc(C(F)(F)F)cc3-c3ccc(C(F)(F)F)nc3)=C(O)[C@@]3(C)CCCN23)c1` [Example 176] it was 5.40. Turning to `CN(C)S(=O)(=O)c1ccc(-c2cc(C(F)(F)F)ccc2NC(=O)C2=C(O)[C@@]3(C)CCCN3N(Cc3cccc(F)c3F)C2=O)s1` [Example 71], the negative logarithm of the IC50 (pIC50) is 5.11. For the compound `C[C@]12CCCN1N(Cc1cc(F)cc(F)c1)C(=O)C(C(=O)Nc1ccc(C(F)(F)F)cc1-c1cc(C(F)(F)F)ncn1)=C2O` [Example 213], the negative-log IC50 (pIC50) was 5.19. `Cc1c(Cl)ncnc1-c1cc(C(F)(F)F)ccc1NC(=O)C1=C(O)[C@H](C(C)(C)C)N(C)N(Cc2ccc(OCCN3CCOCC3)c(F)c2F)C1=O` [Example 276]: the pIC50 was 4.80.

As for `CN1N(Cc2cccc(F)c2F)C(=O)C(C(=O)Nc2ccc(Cl)cc2-c2cc(C(F)(F)F)ncn2)=C(O)C12CCCC2` [Example 261], the negative-log IC50 (pIC50) is 5.11.

The test is the same for the next values; noted with them: read-out: IC50 against 33PO4 uptake into human NaPi-IIb-expressing cells.
Consider `CN1N(Cc2ccc(OCCCCCOC[C@H](O)CO)c(F)c2F)C(=O)C(C(=O)Nc2ccc(C(F)(F)F)cc2-c2cc(C(F)(F)F)ncn2)=C(O)C12CCCC2` [Example 394], for which the pIC50 is 5.17.

Regarding `CN(C[C@H](O)[C@@H](O)[C@H](O)[C@H](O)CO)C(=O)COCCOCCOCCOCCOc1ccc(CN2C(=O)C(C(=O)Nc3ccc(C(F)(F)F)cc3-c3cc(C(F)(F)F)ncn3)=C(O)C3(CCCC3)N2C)c(F)c1F` [Example 441, 7-[[2,3-Difluoro-4-[2-[2-[2-[2-[2-[methyl-[(2S,3R,4R,5R)-2,3,4,5,6-pentahydroxyhexyl]amino]-2-oxoethoxy]ethoxy]ethoxy]ethoxy]ethoxy]phenyl]methyl]-10-hydroxy-6-methyl-8-oxo-N-[4-(trifluoromethyl)-2-[6-(trifluoromethyl)pyrimidin-4-yl]phenyl]-6,7-diazaspiro[4.5]dec-9-ene-9-carboxamide], the pIC50 was 4.67. On to `CN(CCOc1ccc(CN2C(=O)C(C(=O)Nc3ccc(C(F)(F)F)cc3-c3cc(C(F)(F)F)ncn3)=C(O)C3(CCCC3)N2C)c(F)c1F)C1CCOC1` (stereo not shown) [Example 366], for which the pIC50 was 4.79.

Consider `COC1(C)CN(CCOc2ccc(CN3C(=O)C(C(=O)Nc4ccc(C(F)(F)F)cc4-c4cc(C(F)(F)F)ncn4)=C(O)C4(CCC4)N3C)c(F)c2F)C1` [Example 356], for which the pIC50 is 4.66. Take `COCCOCCOc1ccc(CN2C(=O)C(C(=O)Nc3ccc(C(F)(F)F)cc3-c3cc(C(F)(F)F)ncn3)=C(O)C3(CCC3)N2C)c(F)c1F` [Example 401, 6-[[2,3-Difluoro-4-[2-(2-methoxyethoxy)ethoxy]phenyl]methyl]-9-hydroxy-5-methyl-7-oxo-N-[4-(trifluoromethyl)-2-[6-(trifluoromethyl)pyrimidin-4-yl]phenyl]-5,6-diazaspiro[3.5]non-8-ene-8-carboxamide]: the pIC50 is 4.84. As for `COC(=O)CN(C)CCOc1ccc(CN2C(=O)C(C(=O)Nc3ccc(C(F)(F)F)cc3-c3cc(C(F)(F)F)ncn3)=C(O)C3(CCCC3)N2C)c(F)c1F` [Example 368], the pIC50 is 4.83.

As to `CN1N(Cc2ccc(OCCN[C@@H](CC(=O)O)C(=O)O)c(F)c2F)C(=O)C(C(=O)Nc2ccc(C(F)(F)F)cc2-c2cc(C(F)(F)F)ncn2)=C(O)C12CCCC2` [Example 381, (2S)-2-[2-[2,3-Difluoro-4-[[10-hydroxy-6-methyl-8-oxo-9-[[4-(trifluoromethyl)-2-[6-(trifluoromethyl)pyrimidin-4-yl]phenyl]carbamoyl]-6,7-diazaspiro[4.5]dec-9-en-7-yl]methyl]phenoxy]ethylamino]butanedioate], the pIC50 was 4.66. On the same count and under the same terms, in the case of `CN1N(Cc2ccc(OCCN3CCN(S(C)(=O)=O)CC3)c(F)c2F)C(=O)C(C(=O)Nc2ccc(C(F)(F)F)cc2-c2cc(C(F)(F)F)ncn2)=C(O)C12CCCC2` [Example 379] it was 4.56; in that of `CN1N(Cc2ccc(OCCN(CCO)CCO)c(F)c2F)C(=O)C(C(=O)Nc2ccc(C(F)(F)F)cc2-c2cc(C(F)(F)F)ncn2)=C(O)C12CCC2` [Example 351], 4.59. On the same count and under the same terms, for `CC(CN1CCOCC1)Oc1ccc(CN2C(=O)C(C(=O)Nc3ccc(C(F)(F)F)cc3-c3cc(C(F)(F)F)ncn3)=C(O)C3(CCC3)N2C)c(F)c1F` (stereo not shown) [Example 408] the value was 4.84.
